Active and inactive are the calls of the source. No cut-off for these calls is given here.

The values that follow come from ChEMBL document CHEMBL4402605, “A Chemical Switch for Transforming a Purine Agonist for Toll-like Receptor 7 to a Clinically Relevant Antagonist” (J Med Chem, 2020).

For data set [1], the target named is T1, Toll-like receptor 7 (Homo sapiens) (UniProt Q9NYK1).
T1 sequence (whole entry): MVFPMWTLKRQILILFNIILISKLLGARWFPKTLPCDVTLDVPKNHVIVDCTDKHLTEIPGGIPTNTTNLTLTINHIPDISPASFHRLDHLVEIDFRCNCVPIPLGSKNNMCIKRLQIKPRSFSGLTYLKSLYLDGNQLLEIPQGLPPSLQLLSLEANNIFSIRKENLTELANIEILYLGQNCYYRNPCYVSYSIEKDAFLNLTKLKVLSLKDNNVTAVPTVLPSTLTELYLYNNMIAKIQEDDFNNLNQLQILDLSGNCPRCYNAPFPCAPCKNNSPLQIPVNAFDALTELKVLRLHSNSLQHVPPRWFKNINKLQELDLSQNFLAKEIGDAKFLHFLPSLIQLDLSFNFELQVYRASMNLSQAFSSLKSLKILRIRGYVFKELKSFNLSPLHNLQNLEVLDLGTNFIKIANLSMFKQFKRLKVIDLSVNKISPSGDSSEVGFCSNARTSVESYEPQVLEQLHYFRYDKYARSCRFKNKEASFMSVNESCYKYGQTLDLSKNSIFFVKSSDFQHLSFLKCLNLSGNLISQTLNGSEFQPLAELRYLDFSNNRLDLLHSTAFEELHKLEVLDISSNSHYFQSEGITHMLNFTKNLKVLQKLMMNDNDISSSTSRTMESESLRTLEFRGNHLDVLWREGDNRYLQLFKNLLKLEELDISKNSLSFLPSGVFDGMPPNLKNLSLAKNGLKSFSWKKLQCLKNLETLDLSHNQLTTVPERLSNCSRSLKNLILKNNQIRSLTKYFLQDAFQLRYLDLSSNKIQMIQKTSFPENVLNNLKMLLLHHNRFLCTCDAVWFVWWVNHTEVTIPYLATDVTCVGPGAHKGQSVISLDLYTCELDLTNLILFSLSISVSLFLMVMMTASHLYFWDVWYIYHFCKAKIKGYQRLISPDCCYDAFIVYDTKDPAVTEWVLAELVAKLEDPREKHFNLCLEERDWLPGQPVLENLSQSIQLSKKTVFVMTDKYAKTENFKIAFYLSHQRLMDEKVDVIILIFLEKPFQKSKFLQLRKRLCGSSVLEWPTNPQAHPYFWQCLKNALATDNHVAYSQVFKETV
The data set is described as follows: Antagonist activity at human TLR7 expressed in HEK-Blue cells assessed as inhibition of CL264-induced IL-6 mRNA expression at 5 uM preincubated for 1 hr followed by CL264 stimulation and measured after 6 hrs by SYBR green dye based RT-PCR analysis relative to control. The format is cell-based.

In data set [2] the target is T1, Toll-like receptor 7 (Homo sapiens). The data set is described as follows: Antagonist activity at TLR7 in human PBMC assessed as inhibition of gardiquimod-induced TNFalpha production at 5 uM preincubated for 1 hr followed by gardiquimod stimulation and measured after overnight incubation by ELISA. Background: ELISA stands for enzyme-linked immunosorbent assay.
Data set [3] is described as follows: Apparent permeability across apical to basal side in human Caco2 cells at 10 uM measured after 120 mins by LC-MS/MS analysis. The note with it: Caco-2.
Data set [4] in a line: Clearance in human liver microsomes at 100 uM by LC-MS/MS analysis relative to hepatic blood flow. (Liver microsomes are vesicles of endoplasmic reticulum, rich in cytochrome P450 enzymes.)
Data set [5] is described as follows: Clearance in mouse liver microsomes at 100 uM by LC-MS/MS analysis relative to hepatic blood flow.
Data set [6] is described as follows: Half life in C57BL/6 mouse at 15 mg/kg, po administered via gavage by LC-MS/MS analysis. The note with it: in vivo.
The nature of data set [7]: Oral bioavailability in C57BL/6 mouse at 15 mg/kg administered via gavage by LC-MS/MS analysis. The format is ADME, organism-based. The note with it: in vivo.
Data set [8] has as its system Mus musculus. The data set is described as follows: Protection against imiquimod-induced C57BL/6 mouse model of psoriasis assessed as decrease in skin scaling at 15 mg/kg, po administered via gavage treated 1 day prior to imiquimod application and subsequent daily dosing for 7 consecutive days and measured post-last dose relative to control. Format: functional. The arrangement: scale not given: the % may be the effect or the level left.

Data set [9] relates to Mus musculus. The data set is described as follows: Protection against imiquimod-induced C57BL/6 mouse model of psoriasis assessed as decrease in skin thickening at 15 mg/kg, po administered via gavage treated 1 day prior to imiquimod application and subsequent daily dosing for 7 consecutive days and measured post-last dose. The format is functional, organism-based.
In data set [10] the test system is Mus musculus. The data set is described as follows: Protection against imiquimod-induced C57BL/6 mouse model of psoriasis assessed as suppression of hyperkeratosis at 15 mg/kg, po administered via gavage treated 1 day prior to imiquimod application and subsequent daily dosing for 7 consecutive days and measured post-last dose by H and E staining based histopathological analysis. The format is functional.

The subject of data set [11] is Mus musculus. The data set is described as follows: Protection against imiquimod-induced C57BL/6 mouse model of psoriasis assessed as suppression of parakeratosis at 15 mg/kg, po administered via gavage treated 1 day prior to imiquimod application and subsequent daily dosing for 7 consecutive days and measured post-last dose by H and E staining based histopathological analysis. The format is functional.

In data set [12] the test system is Mus musculus. The data set is described as follows: Protection against imiquimod-induced C57BL/6 mouse model of psoriasis assessed as suppression of acanthosis at 15 mg/kg, po administered via gavage treated 1 day prior to imiquimod application and subsequent daily dosing for 7 consecutive days and measured post-last dose by H and E staining based histopathological analysis. The format is functional.

Data set [13] concerns Mus musculus. The data set is described as follows: Protection against imiquimod-induced C57BL/6 mouse model of psoriasis assessed as suppression of spongiosis at 15 mg/kg, po administered via gavage treated 1 day prior to imiquimod application and subsequent daily dosing for 7 consecutive days and measured post-last dose by H and E staining based histopathological analysis. Format: functional.

Data set [14] concerns Mus musculus. The data set is described as follows: Protection against imiquimod-induced C57BL/6 mouse model of psoriasis assessed as suppression of papillomatosis at 15 mg/kg, po administered via gavage treated 1 day prior to imiquimod application and subsequent daily dosing for 7 consecutive days and measured post-last dose by H and E staining based histopathological analysis. Format: functional.

Data set [15] has as its system Mus musculus. The data set is described as follows: Protection against imiquimod-induced C57BL/6 mouse model of psoriasis assessed as suppression of suprapapillary thinning at 15 mg/kg, po administered via gavage treated 1 day prior to imiquimod application and subsequent daily dosing for 7 consecutive days and measured post-last dose by H and E staining based histopathological analysis. The format is functional.

The test system of data set [16] is Mus musculus. The data set is described as follows: Protection against imiquimod-induced C57BL/6 mouse model of psoriasis assessed as reduction in MX1 mRNA expression at 15 mg/kg, po administered via gavage treated 1 day prior to imiquimod application and subsequent daily dosing for 7 consecutive days and measured post-last dose by SYBR green dye based qPCR analysis. Format: functional, organism-based. (In general: Real-time PCR tracks product formation cycle by cycle.)

Data set [17] concerns Mus musculus. The data set is described as follows: Protection against imiquimod-induced C57BL/6 mouse model of psoriasis assessed as reduction in MX2 mRNA expression at 15 mg/kg, po administered via gavage treated 1 day prior to imiquimod application and subsequent daily dosing for 7 consecutive days and measured post-last dose by SYBR green dye based qPCR analysis. The format is functional, organism-based.

Data set [18] has as its system Mus musculus. The data set is described as follows: Protection against imiquimod-induced C57BL/6 mouse model of psoriasis assessed as reduction in ISG15 mRNA expression at 15 mg/kg, po administered via gavage treated 1 day prior to imiquimod application and subsequent daily dosing for 7 consecutive days and measured post-last dose by SYBR green dye based qPCR analysis. Format: functional, organism-based.

A short description of data set [19]: Toxicity in C57BL/6 mouse assessed as change in hepatocyte survival at 15 mg/kg, po administered once daily via gavage for 7 consecutive days and measured post-last dose by H and E staining based histomorphological analysis. Format: organism-based. The note with it: in vivo.
Data set [20] can be described thus: in vitro. The note with it: human, plasma.
Description: Stability of the compound in human plasma assessed as parent compound remaining at 25 uM measured after 2 hrs by LC-MS/MS analysis
The nature of data set [21]: in vitro. The note with it: mouse, plasma.
Description: Stability of the compound in mouse plasma assessed as parent compound remaining at 25 uM measured after 2 hrs by LC-MS/MS analysis

Regarding `CCN1CCN(CCCn2cnc3c(N4CCN(CC)CC4)ncnc32)CC1`, in [1], the inhibition – broadly, how much of the control response was suppressed – came to 42.9%. Also, the inhibition result in data set [2] was “Active”. For the same molecule, the Papp A→B (in general, the apparent permeability from the apical to the basolateral side of a cell layer) at 2 h, 10 µM in data set [3] turned out to be 3.57 ×10⁻⁶ cm/s. For the same molecule, the values for the hepatic extraction ratio at 100 µM in data set [4] and in [5] were 0.265 and 0.144, respectively. Moreover, the half-life – broadly, how long it takes for the measured level to halve – in [6] is 4.6 h. Moreover, in data set [7], the bioavailability (commonly the share of a dose that reaches the circulation, judged against a reference dose that is usually intravenous) was 70.8%. The Activity in data set [8], in data set [10], in data set [11], in data set [12], in [13] and in data set [14] was 100% throughout. For the same molecule, the Activity in data set [15] is given as 100%; in data set [19] it was “Non-Toxic”. The outcome in data set [9], in [16], in data set [17] and in data set [18] was Active. The fraction remaining – broadly, the share of the starting amount still present when the sample was taken – at 2 h, 25 µM was determined as 95% in data set [20] and 99.2% in data set [21].
